Paper PMC10361207, “Cannabinoid and Opioid Receptor Affinity and Modulation of Cancer-Related Signaling Pathways of Machaeriols and Machaeridiols from Machaerium Pers” (Molecules, 2023)

Columns and labels:
Type in all cases: cell-based
E2F = test: Luciferase reporter assay, E2F, T98G; conditions: Homo sapiens; T98G cells; inducer PMA
Protocol: (§1) Hela cells (or T98G cells) from ATCC were plated in white opaque 384-well plates at a density of 4300 cells/well in 30 µL of growth medium (DMEM with 10% FBS and 1% Pen/Strep). The next day, the medium was aspirated and replaced with DMEM containing 1% FBS. The cells were transfected with respective plasmids using X-tremeGENE HP DNA transfection reagent (Roche). After 24 h of transfection, the test agents were added to the transfected cells, followed 30 min later by an inducing agent: interleukin 6 (IL-6) for Stat3, TGF-β for Smad, m-wnt3a for Wnt and PMA for AP-1, NF-κB, E2F, Myc, ETS, Notch and Hedgehog. No inducer was added for FoXO and pTK. After 4 h or 6 h of induction, the cells were lysed via the addition of the One-Glo luciferase assay system (Promega; Madison, WI). The light output was detected in a GloMax®-Multi+ Detection System with Instinct® Software (Promega E 8051). This luciferase assay determines if the test agent is able to inhibit the activation of cancer-related signaling pathways. In the case of FoxO, the enhanced luciferase activity via the test agent was assessed.

Hedgehog = test: Luciferase reporter assay, Hedgehog, T98G; conditions: Homo sapiens; T98G cells; inducer PMA
Protocol: as §1

Wnt = test: Luciferase reporter assay, Wnt, T98G; conditions: T98G cells, inducer m-wnt3a, dash: not inhibited by more than 40% at 50 µmol/L
Protocol: as §1

`C=C(C)[C@H]1CC[C@H](C)C[C@@H]1c1c(O)cc(/C=C/c2ccccc2O)cc1O` [compound 6, machaeridiol B] showed an IC50 (E2F) of 0.7 µM, an IC50 (Hedgehog) of 5 µM and an IC50 (Wnt; Homo sapiens) greater than 50 µM. For the same molecule, the “IC50, Wnt (m-wnt3a)” value (Wnt) was “inactive”.
